We go through 31 compounds from US9994546B2, “Cyclopropylamines as LSD1 inhibitors” (Incyte Corporation, priority 2014, dated 2018).

The target in the assay is LSD-1 enzyme (Homo sapiens (Human), UniProt O60341). The assay is described as follows: LANCE LSD1/KDM1A demethylase assay (LSD1 histone demethylase biochemical assay). To be noted: 1 nM LSD-1 enzyme, 1 hour preincubation at 25° C., 0.4 μM biotin-labeled Histone H3 peptide substrate. The protocol:
LANCE LSD1/KDM1A demethylase assay—10 μL of 1 nM LSD-1 enzyme (ENZO BML-SE544-0050) in the assay buffer (50 mM Tris, pH 7.5, 0.01% Tween-20, 25 mM NaCl, 5 mM DTT) were preincubated for 1 hour at 25° C. with 0.8 μL compound/DMSO dotted in black 384 well polystyrene plates. […] After stopping the reactions plates were incubated for 30 minutes and read on a PHERAstar FS plate reader (BMG Labtech).
In turn, `N#CCC1(N2CCC(CN[C@@H]3C[C@H]3c3ccccc3)CC2)CN(C(=O)Nc2ccc(F)cc2F)C1` (relative stereo) [Example 42, 3-(Cyanomethyl)-N-(2,4-difluorophenyl)-3-(4-{[(trans-2-phenylcyclopropyl)amino]methyl}piperidin-1-yl)azetidine-1-carboxamide] displayed an IC50 of at most 100 nM.

`O=C(O)CC1(N2CCC(N[C@@H]3C[C@H]3c3ccccc3)CC2)CN(Cc2cncs2)C1` [Example 128, [3-(4-{[(1R,2S)-2-phenylcyclopropyl]amino}piperidin-1-yl)-1-(1,3-thiazol-5-ylmethyl)azetidin-3-yl]acetic acid] had an IC50 of at most 100 nM.

Turning to `CNC(=O)CC1(N2CCC(CN[C@@H]3C[C@H]3c3ccccc3)CC2)CNC1` (relative stereo) [Example 51, N-Methyl-2-(3-(4-((trans-2-phenylcyclopropylamino)methyl)piperidin-1-yl)azetidin-3-yl)acetamide], the IC50 was at most 100 nM.

The compound `N#CCC1(N2CCC(N[C@@H]3C[C@H]3c3ccccc3)CC2)CN(C(=O)c2ccns2)C1` [Example 110, [1-(isothiazol-5-ylcarbonyl)-3-(4-{[(1R,2S)-2-phenylcyclopropyl]amino}piperidin-1-yl)azetidin-3-yl]acetonitrile] yielded an IC50 of at most 100 nM.

With `COC1CCN(C(=O)N2CC(CC#N)(N3CCC(N[C@@H]4C[C@H]4c4ccccc4)CC3)C2)CC1` [Example 88, [1-[(4-methoxypiperidin-1-yl)carbonyl]-3-(4-{[(1R,2S)-2-phenylcyclopropyl]amino}piperidin-1-yl)azetidin-3-yl]acetonitrile], the IC50 was at most 100 nM.

With `N#CCC1(N2CCC(N[C@H]3C[C@@H]3c3ccccc3)CC2)CNC1` [Example 61, [3-(4-{[(1S,2R)-2-phenylcyclopropyl]amino}piperidin-1-yl)azetidin-3-yl]acetonitrile], the IC50 is at most 100 nM.

Compound `Cn1cc(C(=O)N2CC(CC#N)(N3CCC(N[C@@H]4C[C@H]4c4ccccc4)CC3)C2)cn1` [Example 80, [1-[(1-methyl-1H-pyrazol-4-yl)carbonyl]-3-(4-{[(1R,2S)-2-phenylcyclopropyl]amino}piperidin-1-yl)azetidin-3-yl]acetonitrile] had an IC50 of at most 100 nM.

Turning to `CN1CCC(N2CC(CN[C@@H]3C[C@H]3c3ccccc3)C2)CC1` (relative stereo) [Example 28, N-{[1-(1-Methylpiperidin-4-yl)azetidin-3-yl]methyl}-trans-2-phenylcyclopropanamine], the IC50 was at most 100 nM.

For the compound `CNC(=O)CC1(N2CCC(N[C@@H]3C[C@H]3c3ccccc3)CC2)CN(CC2CC2)C1` [Example 124, 2-[1-(cyclopropylmethyl)-3-(4-{[(1R,2S)-2-phenylcyclopropyl]amino}piperidin-1-yl)azetidin-3-yl]-N-methylacetamide], the IC50 is at most 100 nM.

For the compound `N#CCC1(N2CCC(CN[C@@H]3C[C@H]3c3ccccc3)CC2)CCC1` (relative stereo) [Example 32, [1-(4-{[(trans-2-Phenylcyclopropyl)amino]methyl}piperidin-1-yl)cyclobutyl]acetonitrile], the IC50 was at most 100 nM.

Regarding `N#CCC1(N2CC(CN[C@@H]3C[C@H]3c3ccccc3)C2)CNC1` (relative stereo) [Example 26, (3-{[(trans-2-Phenylcyclopropyl)amino]methyl}-1,3′-biazetidin-3′-yl)acetonitrile], the IC50 was at most 100 nM.

In turn, `CS(=O)(=O)N1CC(CC#N)(N2CCC(N[C@@H]3C[C@H]3c3ccccc3)CC2)C1` (relative stereo) [Example 9, (1-(Methylsulfonyl)-3-{4-[(trans-2-phenylcyclopropyl)amino]piperidin-1-yl}azetidin-3-yl)acetonitrile] displayed an IC50 of at most 100 nM.

Compound `N#CCC1(N2CC(CN[C@@H]3C[C@H]3c3ccccc3)C2)CCC1` (relative stereo) [Example 14, [1-(3-{[(trans-2-Phenylcyclopropyl)amino]methyl}azetidin-1-yl)cyclobutyl]acetonitrile] yielded an IC50 of at most 100 nM.

For the compound `CS(=O)(=O)N1CC(CC#N)(N2CCC(N[C@@H]3C[C@H]3c3ccc(F)cc3)CC2)C1` [Example 101, [3-(4-{[(1R,2S)-2-(4-fluorophenyl)cyclopropyl]amino}piperidin-1-yl)-1-(methylsulfonyl)azetidin-3-yl]acetonitrile], the IC50 was at most 100 nM.

For `CNC(=O)CC1(N2CCC(N[C@@H]3C[C@H]3c3ccccc3)CC2)CN(C2CCOCC2)C1` [Example 122, N-methyl-2-[3-(4-{[(1R,2S)-2-phenylcyclopropyl]amino}piperidin-1-yl)-1-(tetrahydro-2H-pyran-4-yl)azetidin-3-yl]acetamide], the IC50 was at most 100 nM.

On to `N#CCC1(N2CCC(N[C@@H]3C[C@H]3c3ccccc3)CC2)CN(C(=O)[C@H]2CC[C@H](O)CC2)C1` [Example 82, [1-[(trans-4-hydroxycyclohexyl)carbonyl]-3-(4-{[(1R,2S)-2-phenylcyclopropyl]amino}piperidin-1-yl)azetidin-3-yl]acetonitrile], for which the IC50 is at most 100 nM.

`CC(C)NC(=O)N1CCC(CC#N)(N2CC(CN[C@@H]3C[C@H]3c3ccccc3)C2)CC1` (relative stereo) [Example 24, 4-(Cyanomethyl)-N-isopropyl-4-(3-{[(trans-2-phenylcyclopropyl)amino]methyl}azetidin-1-yl)piperidine-1-carboxamide] had an IC50 of at most 100 nM.

`CNS(=O)(=O)N1CC(CC#N)(N2CCC(N[C@@H]3C[C@H]3c3ccccc3)CC2)C1` [Example 64, 3-(cyanomethyl)-N-methyl-3-(4-{[(1R,2S)-2-phenylcyclopropyl]amino}piperidin-1-yl)azetidine-1-sulfonamide] came in with an IC50 of at most 100 nM.

For the compound `CN(C)C(=O)CC1(N2CCC(N[C@@H]3C[C@H]3c3ccccc3)CC2)CN(S(C)(=O)=O)C1` [Example 90, N,N-dimethyl-2-(1-(methylsulfonyl)-3-(4-(((1R,2S)-2-phenylcyclopropyl)amino)piperidin-1-yl)azetidin-3-yl)acetamide], the IC50 was at most 100 nM.

In turn, `N#CCC1(N2CCC(N[C@@H]3C[C@H]3c3ccc(F)cc3)CC2)CN(S(N)(=O)=O)C1` [Example 102, 3-(cyanomethyl)-3-(4-{[(1R,2S)-2-(4-fluorophenyl)cyclopropyl]amino}piperidin-1-yl)azetidine-1-sulfonamide] showed a 50% inhibitory concentration (IC50) of at most 100 nM.

`CCS(=O)(=O)N1CC(CC#N)(N2CC(CN[C@@H]3C[C@H]3c3ccccc3)C2)C1` (relative stereo) [Example 15, (1′-(Ethylsulfonyl)-3-{[(trans-2-phenylcyclopropyl)amino]methyl}-1,3′-biazetidin-3′-yl)acetonitrile]: the IC50 was at most 100 nM.

`N#CCC1(N2CCC(N[C@@H]3C[C@H]3c3ccccc3)CC2)CN(C2CCOC2)C1` (stereo partly drawn) [Example 76, [3-(4-{[(1R,2S)-2-phenylcyclopropyl]amino}piperidin-1-yl)-1-(tetrahydrofuran-3-yl)azetidin-3-yl]acetonitrile] had a half-maximal inhibitory concentration (IC50) of at most 100 nM.

On to `CNC(=O)CC1(N2CCC(N[C@@H]3C[C@H]3c3ccccc3)CC2)CN(S(C)(=O)=O)C1` [Example 91, N-methyl-2-[1-(methylsulfonyl)-3-(4-{[(1R,2S)-2-phenylcyclopropyl]amino}piperidin-1-yl)azetidin-3-yl]acetamide], for which the IC50 was at most 100 nM.

As to `N#CCC1(N2CCC(N[C@@H]3C[C@H]3c3ccccc3)CC2)CN(C(=O)OC2CCOC2)C1` (stereo partly drawn) [Example 99, tetrahydrofuran-3-yl 3-(cyanomethyl)-3-(4-{[(1R,2S)-2-phenylcyclopropyl]amino}piperidin-1-yl)azetidine-1-carboxylate], the IC50 is at most 100 nM.

For the compound `N#CCC1(N2CCC(CN[C@@H]3C[C@H]3c3ccccc3)CC2)CN(c2ccc(C(F)(F)F)cn2)C1` (relative stereo) [Example 37, {3-(4-{[(trans-2-Phenylcyclopropyl)amino]methyl}piperidin-1-yl)-1-[5-(trifluoromethyl)pyridin-2-yl]azetidin-3-yl}acetonitrile], the IC50 is at most 100 nM.

In turn, `N#CCC1(N2CCC(CN[C@@H]3C[C@H]3c3ccccc3)CC2)CN(C(=O)c2ccc(F)cc2)C1` (relative stereo) [Example 48, [1-(4-Fluorobenzoyl)-3-(4-{[(trans-2-phenylcyclopropyl)amino]methyl}piperidin-1-yl)azetidin-3-yl]acetonitrile] returned an IC50 of at most 100 nM.

The compound `CN(C)C(=O)CC1(N2CCC(N[C@@H]3C[C@H]3c3ccccc3)CC2)CN(CC2CC2)C1` [Example 123, 2-[1-(cyclopropylmethyl)-3-(4-{[(1R,2S)-2-phenylcyclopropyl]amino}piperidin-1-yl)azetidin-3-yl]-N,N-dimethylacetamide] had an IC50 of at most 100 nM.

As for `CCN1CC(CC(=O)O)(N2CCC(N[C@@H]3C[C@H]3c3ccccc3)CC2)C1` [Example 67, [1-ethyl-3-(4-{[(1R,2S)-2-phenylcyclopropyl]amino}piperidin-1-yl)azetidin-3-yl]acetic acid], the IC50 was at most 100 nM.

Take `N#CCC1(N2CCC(CN[C@@H]3C[C@H]3c3ccccc3)CC2)CN(c2ccccc2C#N)C1` (relative stereo) [Example 39, 2-[3-(Cyanomethyl)-3-(4-{[(trans-2-phenylcyclopropyl)amino]methyl}piperidin-1-yl)azetidin-1-yl]benzonitrile]: the IC50 is at most 100 nM.

Compound `N#CCC1(N2CCC(N[C@@H]3C[C@H]3c3ccccc3)CC2)CN(C(=O)[C@H]2CCOC2)C1` [Example 115, {3-(4-{[(1R,2S)-2-phenylcyclopropyl]amino}piperidin-1-yl)-1-[(3S)-tetrahydrofuran-3-ylcarbonyl]azetidin-3-yl}acetonitrile] had an IC50 of at most 100 nM.

In turn, `N#CCC1(N2CCC(N[C@@H]3C[C@H]3c3ccccc3)CC2)CN(C(=O)C2CCCO2)C1` (stereo partly drawn) [Example 107, 2-(3-(4-(((1R,2S)-2-phenylcyclopropyl)amino)piperidin-1-yl)-1-(tetrahydrofuran-2-carbonyl)azetidin-3-yl)acetonitrile] came in with an IC50 of at most 100 nM.

The IC50 is the concentration that gives 50% inhibition. Read a low IC50 as greater potency.
